Assay results taken from PMC10792010, “Analysis of vitamin D receptor binding affinities of enzymatically synthesized triterpenes including ambrein and unnatural onoceroids” (Scientific Reports, 2024).
Entries after “also recorded” stand apart in the source; their conditions may differ. Like-named read-outs stand apart in the source and are kept apart here.

Columns and labels:
human VDR = molecular target: T1, human VDR (Homo sapiens, UniProt P11473); assay: VDR binding affinity, split-luciferase vitamin D biosensor; details: for Relative binding affinity: normalized to that of 1; for VDR binding affinity (in words): comparison between compounds, Fig. 3a
T1 construct: made in house; host or cells: E. coli (cell lysate used)
T1 sequence (P11473 127-423 limits assumed): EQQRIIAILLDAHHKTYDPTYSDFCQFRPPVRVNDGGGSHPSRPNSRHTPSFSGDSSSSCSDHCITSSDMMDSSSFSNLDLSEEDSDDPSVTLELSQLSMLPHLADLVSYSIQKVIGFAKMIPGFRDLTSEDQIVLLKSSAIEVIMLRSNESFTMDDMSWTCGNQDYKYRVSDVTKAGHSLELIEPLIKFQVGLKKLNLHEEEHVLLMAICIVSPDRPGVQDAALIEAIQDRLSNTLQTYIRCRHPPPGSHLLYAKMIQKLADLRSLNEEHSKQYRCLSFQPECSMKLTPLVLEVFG
Procedure: The binding affinity of each compound for the human VDR was evaluated as described previously[10],[19]. In brief, 49 μL of cell lysate derived from recombinant E. coli expressing split-luciferase vitamin D biosensor protein was added to individual wells of a 96-well plate. Next, 1 μL of ethanol solution of each compound at appropriate concentrations was added to each well and incubated for 30 min at 25 °C. Subsequently, 50 μL of the Luciferin solution containing 20 mM of MgSO4, 2 mM of D-luciferin, and 4 mM of adenosine triphosphate in 25 mM Tris–HCl (pH 7.4) was introduced into each well and incubated for 30 min at 25 °C. The luminescence (photon counts) was measured using a luminometer (Infinite 200 Pro 96-microplate luminometer, Tecan, Switzerland). […] X values were calculated using the following equation: X=10^logA/B×50-C/D-C+logB.
In this equation, A and B correspond to concentrations near 50% of the maximum relative light intensity. C and D represent the relative light intensity (%) at concentrations B and A, respectively.

RAW264.7 cells = assay: Osteoclastic differentiation-promoting activity (TRAP-positive multinucleated osteoclasts); format: cell-based; details: sRANKL 100 ng/mL, 4 days; relative to 50 μM 1, Fig. 4
Procedure: RAW264.7 cells were used as pre-osteoclastic cells. Cells were cultured in α-MEM medium containing 10% fetal bovine serum, 2 mM L-glutamine, 100 U/mL penicillin, and 100 μg/mL streptomycin. Osteoclastic differentiation was induced following treatment with 100 ng/mL sRANKL (Oriental Yeast, Japan), and each sample was added to the medium and incubated for 4 days with 5% CO2 at 37 °C. Cells were fixed in 10% glutaraldehyde for 15 min at 37 °C and subsequently incubated for 10 min at 37 °C in tartrate-resistant acid phosphatase (TRAP) buffer, containing 0.1 M sodium acetate, 0.1 M acetic acid, 10 mg/mL naphthol AS-MX phosphate, 0.1% Triton X-100, 0.3 M potassium tartrate, and 0.3 mg/mL Fast Red Violet LB Salt. TRAP-positive dark-red cells with more than three nuclei were manually counted under a light microscope (20× objective) as multinucleated osteoclasts. Y-27632[22] was used as a positive control.

[1] = split-luciferase biosensor lysate, 25 °C, mean ± SD of at least triplicate determinations, read-out: Concentration at 50% maximum light intensity

| Compound | Relative binding affinity (human VDR) | EC50 (human VDR; [1]) [µM] | EC50 (human VDR; Fig. 2b, Table S1, read-out: EC50 value (VDR binding affinity)) [µM] | relative intensity at a concentration of 100 μM (human VDR; 100 μM, relative light intensity compared to control (1% ethanol)) | VDR binding affinity (in words) (human VDR) | osteoclastic differentiation-promoting activity (in words) (RAW264.7 cells) |
| --- | --- | --- | --- | --- | --- | --- |
| C=C1CCCC(C)(C)[C@@H]1CC/C(C)=C/CC[C@@H]1[C@@]2(C)CCCC(C)(C)[C@@H]2CC[C@@]1(C)O [compound 1, ambrein] | 1 | – | 112 ± 29 | – | – | – |
| CC(C)=CCC/C(C)=C/CC/C(C)=C/CC[C@@H]1[C@@]2(C)CCCC(C)(C)[C@@H]2CC[C@@]1(C)O [compound 3] | 0.88 | 128 ± 38 | – | – | – | no activity |
| C=C1CCCC(C)(C)C1CC/C(C)=C/CC/C=C(\C)CC/C=C(\C)CCC=C(C)C (stereo not shown) [compound 4] | – | – | – | 0.82 ± 0.07 | did not bind to the VDR; also recorded: very low VDR binding affinity | – |
| C/C(=C\CC[C@@H]1[C@@]2(C)CCCC(C)(C)[C@@H]2CC[C@@]1(C)O)CC[C@H]1C(C)(C)CCC[C@]1(C)O [compound 10] | 4.6 | 24.6 ± 8.2 | – | – | – | – |
| C=C1CC[C@H](O)C(C)(C)[C@@H]1CC/C(C)=C/CC[C@@H]1[C@@]2(C)CCCC(C)(C)[C@@H]2CC[C@@]1(C)O [compound 15] | 2.5 | 45.2 ± 17.1 | – | – | – | – |

Continued, in another order:

| Relative binding affinity (human VDR) | EC50 (human VDR; [1]) [µM] | EC50 (human VDR; Fig. 2b, Table S1, read-out: EC50 value (VDR binding affinity)) [µM] | relative intensity at a concentration of 100 μM (human VDR; 100 μM, relative light intensity compared to control (1% ethanol)) | VDR binding affinity (in words) (human VDR) | Compound | osteoclastic differentiation-promoting activity (in words) (RAW264.7 cells) |
| --- | --- | --- | --- | --- | --- | --- |
| 1510 | 0.074 ± 0.015 | – | – | – | C=C1CCC(O)CC1=CC=C1CCCC2(C)C1CCC2C(C)CCCC(C)(C)O (stereo not shown) [VD-II, 25-hydroxyvitamin D3, reference compound] | – |
| 10 | 11.1 ± 1.5 | – | – | tenfold higher than that of 1 | C=C1CC[C@H]2C(C)(C)CCC[C@]2(C)[C@H]1CC[C@@H]1[C@@]2(C)CCCC(C)(C)[C@@H]2CC[C@@]1(C)O [compound 6] | not comparable to that of 1 |
| 8.9 | 12.6 ± 2.1 | – | – | higher affinity than 10 and 15 | CC1=CC[C@H]2C(C)(C)CCC[C@]2(C)[C@H]1CC[C@@H]1[C@@]2(C)CCCC(C)(C)[C@@H]2CC[C@@]1(C)O [compound 11] | – |
| 7.0 | 16 ± 2.2 | – | – | higher affinity than 10 and 15 | C=C1CCCC(C)(C)[C@@H]1CC/C(C)=C/CC[C@H]1C(=C)CC[C@H]2C(C)(C)CCC[C@]12C [compound 13] | – |
| – | 13.9 ± 2.5 | – | – | higher affinity than 10 and 15 | C=C1CC[C@H]2C(C)(C)[C@@H](O)CC[C@]2(C)[C@H]1CC[C@@H]1[C@@]2(C)CCCC(C)(C)[C@@H]2CC[C@@]1(C)O [compound 14] | – |
